Laboratory results from ChEMBL document CHEMBL5291721, “A preclinical secondary pharmacology resource illuminates target-adverse drug reaction associations of marketed drugs” (Nat Commun, 2023).
Blank lines part the entries; values can stand above or below the compound they belong to.

Key:
[1] = target: T1, Oxysterols receptor LXR-alpha (Homo sapiens, UniProt Q13133); format: functional
T1 sequence (Q13133 whole entry): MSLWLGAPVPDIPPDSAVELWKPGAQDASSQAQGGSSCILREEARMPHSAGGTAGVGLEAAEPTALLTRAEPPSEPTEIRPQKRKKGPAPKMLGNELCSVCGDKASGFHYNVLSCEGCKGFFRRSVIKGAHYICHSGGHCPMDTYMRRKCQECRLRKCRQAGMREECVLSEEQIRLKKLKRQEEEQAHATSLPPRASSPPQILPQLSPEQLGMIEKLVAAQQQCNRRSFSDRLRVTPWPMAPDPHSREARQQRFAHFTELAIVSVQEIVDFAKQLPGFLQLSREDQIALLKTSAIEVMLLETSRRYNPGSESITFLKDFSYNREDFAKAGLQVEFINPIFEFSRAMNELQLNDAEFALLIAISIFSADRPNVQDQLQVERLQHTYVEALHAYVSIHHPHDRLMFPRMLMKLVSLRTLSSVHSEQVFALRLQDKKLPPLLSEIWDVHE

[2] = target: T2, Oxysterols receptor LXR-beta (Homo sapiens, UniProt P55055); format: functional
T2 sequence (P55055 whole entry): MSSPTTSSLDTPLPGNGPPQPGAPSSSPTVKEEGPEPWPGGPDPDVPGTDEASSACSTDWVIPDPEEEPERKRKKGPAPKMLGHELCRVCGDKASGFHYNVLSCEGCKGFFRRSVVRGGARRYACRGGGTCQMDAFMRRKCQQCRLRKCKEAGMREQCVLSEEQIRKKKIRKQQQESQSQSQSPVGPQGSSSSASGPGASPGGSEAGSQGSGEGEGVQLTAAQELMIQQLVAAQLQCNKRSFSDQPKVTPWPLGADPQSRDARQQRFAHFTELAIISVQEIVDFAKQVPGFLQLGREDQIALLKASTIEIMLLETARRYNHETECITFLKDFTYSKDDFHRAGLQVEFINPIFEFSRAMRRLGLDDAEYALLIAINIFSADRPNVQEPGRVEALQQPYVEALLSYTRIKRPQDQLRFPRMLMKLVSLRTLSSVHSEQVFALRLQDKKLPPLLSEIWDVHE

[3] = target: T3, Retinoic acid receptor alpha (Homo sapiens, UniProt P10276); format: functional, cell-based
T3 sequence (P10276 whole entry): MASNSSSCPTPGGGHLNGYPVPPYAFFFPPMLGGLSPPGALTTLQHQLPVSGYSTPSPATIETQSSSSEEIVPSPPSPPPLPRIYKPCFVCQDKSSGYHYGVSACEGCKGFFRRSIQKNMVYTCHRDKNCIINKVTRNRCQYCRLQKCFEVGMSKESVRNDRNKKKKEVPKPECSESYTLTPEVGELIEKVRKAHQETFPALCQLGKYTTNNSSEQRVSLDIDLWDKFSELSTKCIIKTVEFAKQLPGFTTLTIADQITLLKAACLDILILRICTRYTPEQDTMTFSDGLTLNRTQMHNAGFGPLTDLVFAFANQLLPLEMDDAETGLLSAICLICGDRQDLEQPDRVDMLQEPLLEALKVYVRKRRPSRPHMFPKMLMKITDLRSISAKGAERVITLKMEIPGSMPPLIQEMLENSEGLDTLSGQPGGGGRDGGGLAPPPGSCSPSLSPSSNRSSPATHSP

Glucocorticoid receptor = target: T4, Glucocorticoid receptor (Homo sapiens, UniProt P04150); format: functional
T4 sequence (P04150 whole entry): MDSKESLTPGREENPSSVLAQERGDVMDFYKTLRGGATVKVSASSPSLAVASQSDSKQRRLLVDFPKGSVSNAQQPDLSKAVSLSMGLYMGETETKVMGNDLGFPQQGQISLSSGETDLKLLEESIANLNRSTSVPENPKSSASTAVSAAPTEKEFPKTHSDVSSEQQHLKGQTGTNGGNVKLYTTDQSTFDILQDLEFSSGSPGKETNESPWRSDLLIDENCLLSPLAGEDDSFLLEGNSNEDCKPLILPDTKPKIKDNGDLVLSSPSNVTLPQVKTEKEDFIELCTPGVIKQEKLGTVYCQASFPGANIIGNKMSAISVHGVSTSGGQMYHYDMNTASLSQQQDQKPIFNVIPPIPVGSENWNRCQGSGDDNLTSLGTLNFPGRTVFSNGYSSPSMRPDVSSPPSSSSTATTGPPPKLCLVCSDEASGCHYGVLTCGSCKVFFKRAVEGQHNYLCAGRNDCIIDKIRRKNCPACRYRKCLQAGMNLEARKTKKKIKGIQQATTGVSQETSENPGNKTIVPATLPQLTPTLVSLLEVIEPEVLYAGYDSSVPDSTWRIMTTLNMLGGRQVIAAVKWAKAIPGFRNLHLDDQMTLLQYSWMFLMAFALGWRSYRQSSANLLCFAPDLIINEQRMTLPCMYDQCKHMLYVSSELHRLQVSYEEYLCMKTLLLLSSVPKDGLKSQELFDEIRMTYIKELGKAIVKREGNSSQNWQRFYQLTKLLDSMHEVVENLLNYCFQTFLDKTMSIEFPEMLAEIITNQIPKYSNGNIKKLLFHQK

[4] = target: T5, Alpha-1A adrenergic receptor (Homo sapiens, UniProt P35348); format: functional, cell-based
T5 sequence (P35348 whole entry): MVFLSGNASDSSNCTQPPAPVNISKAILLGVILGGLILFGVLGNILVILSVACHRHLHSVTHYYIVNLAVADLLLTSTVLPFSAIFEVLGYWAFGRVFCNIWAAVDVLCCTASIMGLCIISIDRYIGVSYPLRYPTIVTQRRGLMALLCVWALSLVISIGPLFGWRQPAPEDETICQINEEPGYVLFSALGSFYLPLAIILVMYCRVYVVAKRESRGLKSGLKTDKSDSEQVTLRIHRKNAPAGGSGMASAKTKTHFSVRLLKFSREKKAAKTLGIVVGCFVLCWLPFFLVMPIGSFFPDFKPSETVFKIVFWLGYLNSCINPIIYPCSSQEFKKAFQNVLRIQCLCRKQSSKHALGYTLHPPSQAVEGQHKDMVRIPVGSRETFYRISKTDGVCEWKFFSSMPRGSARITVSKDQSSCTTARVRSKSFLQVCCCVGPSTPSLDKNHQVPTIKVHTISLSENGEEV

Adenosine receptor A1 = target: T6, Adenosine receptor A1 (Homo sapiens, UniProt P30542)
T6 sequence (P30542 whole entry): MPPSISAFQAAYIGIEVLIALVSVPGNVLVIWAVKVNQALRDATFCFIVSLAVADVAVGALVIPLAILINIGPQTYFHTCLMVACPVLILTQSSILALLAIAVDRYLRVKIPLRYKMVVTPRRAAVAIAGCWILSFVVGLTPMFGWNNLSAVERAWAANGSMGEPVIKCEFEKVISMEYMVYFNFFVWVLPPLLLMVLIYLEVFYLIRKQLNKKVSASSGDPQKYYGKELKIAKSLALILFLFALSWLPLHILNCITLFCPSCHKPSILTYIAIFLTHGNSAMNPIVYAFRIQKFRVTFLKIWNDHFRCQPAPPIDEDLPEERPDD
Note: assay procedure not described here.

AC50 [1]: > 30 µM
AC50 [2]: > 30 µM
AC50 [3]: > 30 µM
Compound: CC(C)c1c(C(=O)Nc2ccccc2)c(-c2ccccc2)c(-c2ccc(F)cc2)n1CC[C@@H](O)C[C@@H](O)CC(=O)O [ATORVASTATIN]

AC50 (Glucocorticoid receptor): > 30 µM
Compound: [H]/N=C(/N)c1ccc(NCc2nc3cc(C(=O)N(CCC(=O)O)c4ccccn4)ccc3n2C)cc1 [DABIGATRAN]

Compound: Nc1nc2ccc(OC(F)(F)F)cc2s1 [RILUZOLE]
AC50 [4]: > 30 µM

AC50 (Adenosine receptor A1): > 30 µM
Compound: BIVALIRUDIN
